PubChem BioAssay AID248 (DTP/NCI, 2004)
Values joined by “and” are separate entries in the source; they are usually repeats but may differ in a detail not shown here. Identical values can stand only once. Toxic doses and inconclusive results are not listed. Rule as the data show it: active = T/C of 150% or more; inactive = T/C below 125%.

Tested on: L1210 leukemia ip in BDF1 mice, survival T/C
Experiment: NCI In Vivo Anticancer Drug Screen. Data for tumor model L1210 Leukemia (intraperitoneal) in B6D2F1 (BDF1) mice
Conditions: endpoint: mean survival time, higher = longer survival
Experimental: The antitumor activity of compounds was measured in mice bearing transplantable tumors. Survival or tumor size were measured and the results are expressed as the measurement made in the treated group (T) divided by the measurement made in the vehicle treated control group (C). The tumor model used in this assay is L1210 Leukemia (intraperitoneal) in B6D2F1 (BDF1) mice

[1] = dose: 100.0 mg/kg/injection, schedule: Q01DX001 (ip), vehicle: other
[2] = dose: 200.0 mg/kg/injection, schedule: Q01DX001 (ip), vehicle: other
[3] = dose: 50.0 mg/kg/injection, schedule: Q01DX001 (ip), vehicle: carboxymethylcellulose (CMC)
[4] = dose: 100.0 mg/kg/injection, schedule: Q01DX001 (ip), vehicle: carboxymethylcellulose (CMC)
[5] = dose: 200.0 mg/kg/injection, schedule: Q01DX001 (ip), vehicle: carboxymethylcellulose (CMC)
[6] = dose: 400.0 mg/kg/injection, schedule: Q01DX001 (ip), vehicle: carboxymethylcellulose (CMC)
[7] = dose: 100.0 mg/kg/injection, schedule: Q04DX003 (ip), vehicle: saline with Tween-80
[8] = dose: 200.0 mg/kg/injection, schedule: Q04DX003 (ip), vehicle: saline with Tween-80
[9] = dose: 100.0 mg/kg/injection, schedule: Q01DX009 (ip), vehicle: saline with Tween-80
[10] = dose: 100.0 mg/kg/injection, schedule: Q04DX003 (ip), vehicle: saline
[11] = dose: 200.0 mg/kg/injection, schedule: Q04DX003 (ip), vehicle: saline
[12] = dose: 400.0 mg/kg/injection, schedule: Q04DX003 (ip), vehicle: saline
[13] = dose: 100.0 mg/kg/injection, schedule: Q01DX001 (ip), vehicle: Klucel (hydroxypropylcellulose) (HPC)
[14] = dose: 200.0 mg/kg/injection, schedule: Q01DX001 (ip), vehicle: Klucel (hydroxypropylcellulose) (HPC)
[15] = dose: 400.0 mg/kg/injection, schedule: Q01DX001 (ip), vehicle: Klucel (hydroxypropylcellulose) (HPC)

Measured: T/C

O=C(O)C(Cc1ccccc1)NS(=O)(=O)Cc1ccccc1 (configuration not stated)
inactive: [1] 100 % of control | dose: 100.0 mg/kg/injection, schedule: Q04DX003 (ip), vehicle: other 96 % of control | [2] 102 % of control | dose: 200.0 mg/kg/injection, schedule: Q04DX003 (ip), vehicle: other 93 % of control | dose: 400.0 mg/kg/injection, schedule: Q01DX001 (ip), vehicle: other 100 % of control | dose: 400.0 mg/kg/injection, schedule: Q04DX003 (ip), vehicle: other 93 % of control

COc1cc([N+](=O)[O-])ccc1NC(=O)Oc1ccc(F)cc1Cl
inactive: dose: 100.0 mg/kg/injection, schedule: Q01DX009 (ip), vehicle: Klucel (hydroxypropylcellulose) (HPC) 94 % of control | dose: 200.0 mg/kg/injection, schedule: Q01DX009 (ip), vehicle: Klucel (hydroxypropylcellulose) (HPC) 88 % of control

C[n+]1cc(I)cc2ccccc21
inactive: [3] 97 % of control | [4] 103 % of control | [5] 103 % of control | [6] 101 % of control

CC(=O)Nc1ccc(/C=N/N=C(N)N)cc1
inactive: dose: 63.0 mg/kg/injection, schedule: Q01DX Z (ip), vehicle: carboxymethylcellulose (CMC) 88 % of control | dose: 125.0 mg/kg/injection, schedule: Q01DX Z (ip), vehicle: carboxymethylcellulose (CMC) 100 % of control

ClC1=NC(c2ccc(Cl)cc2)N2C1C2c1ccccc1 (configuration not stated)
inactive: [7] 92 % of control | [8] 92 % of control | dose: 400.0 mg/kg/injection, schedule: Q04DX003 (ip), vehicle: saline with Tween-80 94 % of control

Cc1cc2ccccc2oc1=O
inactive: dose: 25.0 mg/kg/injection, schedule: Q01DX009 (ip), vehicle: saline with Tween-80 101 % of control | dose: 25.0 mg/kg/injection, schedule: Q04DX003 (ip), vehicle: saline with Tween-80 98 % of control | dose: 50.0 mg/kg/injection, schedule: Q01DX009 (ip), vehicle: saline with Tween-80 114 % of control | dose: 50.0 mg/kg/injection, schedule: Q04DX003 (ip), vehicle: saline with Tween-80 93 % of control | [9] 107 % of control | [7] 86 % of control

CCOC(=O)c1cc(Cl)c2c(ccc3ccccc32)n1
inactive: [4] 115 % of control | dose: 100.0 mg/kg/injection, schedule: Q01DX009 (ip), vehicle: carboxymethylcellulose (CMC) 92 % of control | dose: 100.0 mg/kg/injection, schedule: Q04DX002 (ip), vehicle: carboxymethylcellulose (CMC) 100 % of control and 103 % of control | dose: 100.0 mg/kg/injection, schedule: Q04DX003 (ip), vehicle: carboxymethylcellulose (CMC) 105 % of control | [5] 103 % of control | dose: 200.0 mg/kg/injection, schedule: Q01DX009 (ip), vehicle: carboxymethylcellulose (CMC) 92 % of control | dose: 200.0 mg/kg/injection, schedule: Q04DX002 (ip), vehicle: carboxymethylcellulose (CMC) 93 % of control and 97 % of control | dose: 200.0 mg/kg/injection, schedule: Q04DX003 (ip), vehicle: carboxymethylcellulose (CMC) 115 % of control | [6] 97 % of control | dose: 400.0 mg/kg/injection, schedule: Q01DX009 (ip), vehicle: carboxymethylcellulose (CMC) 98 % of control | dose: 400.0 mg/kg/injection, schedule: Q04DX002 (ip), vehicle: carboxymethylcellulose (CMC) 93 % of control and 95 % of control | dose: 400.0 mg/kg/injection, schedule: Q04DX003 (ip), vehicle: carboxymethylcellulose (CMC) 107 % of control

Nc1[nH]c(=S)ncc1-c1ccc(Cl)c(Cl)c1
inactive: dose: 100.0 mg/kg/injection, schedule: Q04DX003 (ip), vehicle: Klucel (hydroxypropylcellulose) (HPC) 101 % of control | dose: 200.0 mg/kg/injection, schedule: Q04DX003 (ip), vehicle: Klucel (hydroxypropylcellulose) (HPC) 97 % of control | dose: 400.0 mg/kg/injection, schedule: Q04DX003 (ip), vehicle: Klucel (hydroxypropylcellulose) (HPC) 93 % of control

COc1cc2c(c(OC)c1OC)-c1ccc(=O)c(N)cc1C(NC(C)=O)CC2 (configuration not stated)
inactive: dose: 1.8 mg/kg/injection, schedule: Q01DX Z (ip), vehicle: carboxymethylcellulose (CMC) 97 % of control | dose: 3.7 mg/kg/injection, schedule: Q01DX Z (ip), vehicle: carboxymethylcellulose (CMC) 101 % of control | dose: 7.5 mg/kg/injection, schedule: Q01DX Z (ip), vehicle: carboxymethylcellulose (CMC) 105 % of control | dose: 15.0 mg/kg/injection, schedule: Q01DX Z (ip), vehicle: carboxymethylcellulose (CMC) 105 % of control | dose: 30.0 mg/kg/injection, schedule: Q01DX Z (ip), vehicle: carboxymethylcellulose (CMC) 110 % of control and 112 % of control | dose: 60.0 mg/kg/injection, schedule: Q01DX Z (ip), vehicle: carboxymethylcellulose (CMC) 114 % of control and 122 % of control | dose: 240.0 mg/kg/injection, schedule: Q01DX Z (ip), vehicle: carboxymethylcellulose (CMC) 121 % of control

CSc1[nH]c2ncnc(N)c2c1C#N
inactive: [1] 88 % of control | [2] 101 % of control

COc1c(Br)c(Br)c(Br)c(OC)c1OC
inactive: [3] 98 % of control | [4] 101 % of control | [5] 106 % of control | [6] 98 % of control

CC(C)(O)C(I)C[n+]1ccccc1 (configuration not stated)
inactive: dose: 50.0 mg/kg/injection, schedule: Q01DX009 (ip), vehicle: saline 107 % of control | dose: 88.0 mg/kg/injection, schedule: Q04DX003 (ip), vehicle: saline with Tween-80 124 % of control | dose: 100.0 mg/kg/injection, schedule: Q01DX009 (ip), vehicle: saline 110 % of control and 113 % of control | [7] 106 % of control | [10] 102 % of control and 111 % of control | dose: 133.0 mg/kg/injection, schedule: Q04DX003 (ip), vehicle: saline with Tween-80 119 % of control | dose: 175.0 mg/kg/injection, schedule: Q04DX003 (ip), vehicle: saline 106 % of control | dose: 200.0 mg/kg/injection, schedule: Q01DX009 (ip), vehicle: saline 117 % of control and 121 % of control | [8] 117 % of control | [11] 108 % of control | dose: 265.0 mg/kg/injection, schedule: Q04DX003 (ip), vehicle: saline 114 % of control | [12] 121 % of control | dose: 600.0 mg/kg/injection, schedule: Q04DX003 (ip), vehicle: saline 90 % of control

COC1CCCCC1SCSC1CCCCC1OC (configuration not stated)
inactive: [9] 90 % of control | dose: 400.0 mg/kg/injection, schedule: Q01DX009 (ip), vehicle: saline with Tween-80 88 % of control

CC(Oc1nc2c(c(=O)n(C)c(=O)n2C)n1C)C1CCCCC1 (configuration not stated)
inactive: dose: 50.0 mg/kg/injection, schedule: Q01DX001 (ip), vehicle: other 95 % of control | [1] 98 % of control | [2] 93 % of control

CCC(C#N)C(=O)NC(N)=O (configuration not stated)
inactive: [10] 97 % of control | [11] 92 % of control | [12] 91 % of control

O=C(N/N=C/c1[nH]c(=S)[nH]c(=O)c1Cc1ccc(Cl)cc1)c1ccncc1
inactive: [13] 104 % of control | [14] 101 % of control | [15] 98 % of control

O=C(OCc1ccccc1)C1CCCN1Cc1ccc2c(c1)OCO2 (configuration not stated)
inactive: dose: 100.0 mg/kg/injection, schedule: Q01DX001 (ip), vehicle: saline 93 % of control | dose: 400.0 mg/kg/injection, schedule: Q01DX001 (ip), vehicle: saline 96 % of control

O=C(c1ccccc1)C12CC3CC(CC(C3)C1)C2
inactive: dose: 75.0 mg/kg/injection, schedule: Q04DX003 (ip), vehicle: Klucel (hydroxypropylcellulose) (HPC) 93 % of control | [13] 96 % of control | dose: 150.0 mg/kg/injection, schedule: Q04DX003 (ip), vehicle: Klucel (hydroxypropylcellulose) (HPC) 93 % of control | [14] 100 % of control | dose: 300.0 mg/kg/injection, schedule: Q04DX003 (ip), vehicle: Klucel (hydroxypropylcellulose) (HPC) 106 % of control | [15] 105 % of control

O=S(=O)(O)CS(=O)(=O)O
inactive: dose: 5.0 mg/kg/injection, schedule: Q01DX001 (ip), vehicle: saline 101 % of control | dose: 10.0 mg/kg/injection, schedule: Q01DX001 (ip), vehicle: saline 100 % of control | dose: 20.0 mg/kg/injection, schedule: Q01DX001 (ip), vehicle: saline 97 % of control | dose: 40.0 mg/kg/injection, schedule: Q01DX001 (ip), vehicle: saline 101 % of control
